For nine compounds, IC50 and Nav1.4/Nav1.7 results are on record in patent US10344060B2 (priority 2013, dated 2019).

The target of one assay is hNav1.7 (Homo sapiens, UniProt Q15858). Briefly: cell-based. The class given is cell-based. The note with it: Table 12; PatchXpress, tonic block; read-out: PX hNav1.7 Tonic IC50.
The next assay concerns the target hNav1.4 (Homo sapiens, UniProt P35499). Briefly: cell-based. The note with it: Table 12; for pIC50: PatchXpress, tonic block, read-out: PX hNav1.4 Tonic IC50; for Nav1.4/Nav1.7: ratio of PX tonic IC50 values. The class given is cell-based.

pIC50: −log10 of the molar value. Bridge positions count the residues as written; N and C are the ends. Square brackets hold non-standard residues; d marks the D form. Peptide text beside a SMILES is read from it. Cha = N[C@@H](CC1CCCCC1)C(=O)O; Ala(CN) = N#CC[C@H](N)C(=O)O; Nle = CCCC[C@H](N)C(=O)O; Pra = C#CC[C@H](N)C(=O)O

Chain of hNav1.4 (P35499 whole entry): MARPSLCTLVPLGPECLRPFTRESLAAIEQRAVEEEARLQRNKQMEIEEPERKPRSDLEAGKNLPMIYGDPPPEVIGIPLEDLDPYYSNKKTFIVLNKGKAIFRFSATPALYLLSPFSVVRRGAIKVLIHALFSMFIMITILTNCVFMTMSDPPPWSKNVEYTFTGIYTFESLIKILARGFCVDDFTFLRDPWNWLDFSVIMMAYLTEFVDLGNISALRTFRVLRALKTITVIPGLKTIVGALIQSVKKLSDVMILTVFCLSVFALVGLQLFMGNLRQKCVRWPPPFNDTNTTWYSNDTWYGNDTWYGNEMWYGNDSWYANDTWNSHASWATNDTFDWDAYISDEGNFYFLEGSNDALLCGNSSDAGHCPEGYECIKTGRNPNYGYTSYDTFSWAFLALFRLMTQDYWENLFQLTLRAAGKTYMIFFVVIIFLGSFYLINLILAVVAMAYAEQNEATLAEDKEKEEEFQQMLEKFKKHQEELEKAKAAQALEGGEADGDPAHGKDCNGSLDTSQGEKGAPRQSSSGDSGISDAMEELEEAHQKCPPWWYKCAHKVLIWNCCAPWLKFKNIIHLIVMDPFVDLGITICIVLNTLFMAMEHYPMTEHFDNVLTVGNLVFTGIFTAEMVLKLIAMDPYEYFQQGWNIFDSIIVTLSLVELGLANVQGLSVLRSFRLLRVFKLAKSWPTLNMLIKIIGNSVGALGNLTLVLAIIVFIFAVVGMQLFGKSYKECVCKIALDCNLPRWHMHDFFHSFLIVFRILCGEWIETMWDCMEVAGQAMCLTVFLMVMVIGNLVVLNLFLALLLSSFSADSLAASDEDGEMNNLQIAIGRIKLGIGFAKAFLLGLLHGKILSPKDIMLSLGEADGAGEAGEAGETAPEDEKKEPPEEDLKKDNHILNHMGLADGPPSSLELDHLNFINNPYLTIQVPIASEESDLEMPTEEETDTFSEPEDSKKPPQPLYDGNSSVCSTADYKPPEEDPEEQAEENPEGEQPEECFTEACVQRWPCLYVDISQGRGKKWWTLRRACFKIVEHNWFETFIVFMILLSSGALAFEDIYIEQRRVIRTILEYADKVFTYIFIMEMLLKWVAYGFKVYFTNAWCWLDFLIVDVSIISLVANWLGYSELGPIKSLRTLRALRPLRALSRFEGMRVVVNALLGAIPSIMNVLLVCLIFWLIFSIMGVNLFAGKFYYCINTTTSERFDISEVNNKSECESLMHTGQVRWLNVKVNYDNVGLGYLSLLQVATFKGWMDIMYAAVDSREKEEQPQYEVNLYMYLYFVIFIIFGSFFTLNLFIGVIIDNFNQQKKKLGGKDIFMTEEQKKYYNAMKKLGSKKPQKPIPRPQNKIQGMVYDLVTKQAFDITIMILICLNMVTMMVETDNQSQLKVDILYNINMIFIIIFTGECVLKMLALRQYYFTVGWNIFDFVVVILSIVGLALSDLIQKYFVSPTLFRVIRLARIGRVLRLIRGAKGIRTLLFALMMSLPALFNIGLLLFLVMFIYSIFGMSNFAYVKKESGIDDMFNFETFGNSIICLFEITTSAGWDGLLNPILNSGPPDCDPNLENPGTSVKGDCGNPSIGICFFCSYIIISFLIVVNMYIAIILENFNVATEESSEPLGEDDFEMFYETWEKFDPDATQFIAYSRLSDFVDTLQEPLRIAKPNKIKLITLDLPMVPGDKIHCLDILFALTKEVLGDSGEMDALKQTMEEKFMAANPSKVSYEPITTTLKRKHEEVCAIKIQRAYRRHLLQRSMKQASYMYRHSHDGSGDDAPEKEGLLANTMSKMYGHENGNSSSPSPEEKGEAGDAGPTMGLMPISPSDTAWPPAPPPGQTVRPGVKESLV
Chain of hNav1.7 (Q15858 whole entry): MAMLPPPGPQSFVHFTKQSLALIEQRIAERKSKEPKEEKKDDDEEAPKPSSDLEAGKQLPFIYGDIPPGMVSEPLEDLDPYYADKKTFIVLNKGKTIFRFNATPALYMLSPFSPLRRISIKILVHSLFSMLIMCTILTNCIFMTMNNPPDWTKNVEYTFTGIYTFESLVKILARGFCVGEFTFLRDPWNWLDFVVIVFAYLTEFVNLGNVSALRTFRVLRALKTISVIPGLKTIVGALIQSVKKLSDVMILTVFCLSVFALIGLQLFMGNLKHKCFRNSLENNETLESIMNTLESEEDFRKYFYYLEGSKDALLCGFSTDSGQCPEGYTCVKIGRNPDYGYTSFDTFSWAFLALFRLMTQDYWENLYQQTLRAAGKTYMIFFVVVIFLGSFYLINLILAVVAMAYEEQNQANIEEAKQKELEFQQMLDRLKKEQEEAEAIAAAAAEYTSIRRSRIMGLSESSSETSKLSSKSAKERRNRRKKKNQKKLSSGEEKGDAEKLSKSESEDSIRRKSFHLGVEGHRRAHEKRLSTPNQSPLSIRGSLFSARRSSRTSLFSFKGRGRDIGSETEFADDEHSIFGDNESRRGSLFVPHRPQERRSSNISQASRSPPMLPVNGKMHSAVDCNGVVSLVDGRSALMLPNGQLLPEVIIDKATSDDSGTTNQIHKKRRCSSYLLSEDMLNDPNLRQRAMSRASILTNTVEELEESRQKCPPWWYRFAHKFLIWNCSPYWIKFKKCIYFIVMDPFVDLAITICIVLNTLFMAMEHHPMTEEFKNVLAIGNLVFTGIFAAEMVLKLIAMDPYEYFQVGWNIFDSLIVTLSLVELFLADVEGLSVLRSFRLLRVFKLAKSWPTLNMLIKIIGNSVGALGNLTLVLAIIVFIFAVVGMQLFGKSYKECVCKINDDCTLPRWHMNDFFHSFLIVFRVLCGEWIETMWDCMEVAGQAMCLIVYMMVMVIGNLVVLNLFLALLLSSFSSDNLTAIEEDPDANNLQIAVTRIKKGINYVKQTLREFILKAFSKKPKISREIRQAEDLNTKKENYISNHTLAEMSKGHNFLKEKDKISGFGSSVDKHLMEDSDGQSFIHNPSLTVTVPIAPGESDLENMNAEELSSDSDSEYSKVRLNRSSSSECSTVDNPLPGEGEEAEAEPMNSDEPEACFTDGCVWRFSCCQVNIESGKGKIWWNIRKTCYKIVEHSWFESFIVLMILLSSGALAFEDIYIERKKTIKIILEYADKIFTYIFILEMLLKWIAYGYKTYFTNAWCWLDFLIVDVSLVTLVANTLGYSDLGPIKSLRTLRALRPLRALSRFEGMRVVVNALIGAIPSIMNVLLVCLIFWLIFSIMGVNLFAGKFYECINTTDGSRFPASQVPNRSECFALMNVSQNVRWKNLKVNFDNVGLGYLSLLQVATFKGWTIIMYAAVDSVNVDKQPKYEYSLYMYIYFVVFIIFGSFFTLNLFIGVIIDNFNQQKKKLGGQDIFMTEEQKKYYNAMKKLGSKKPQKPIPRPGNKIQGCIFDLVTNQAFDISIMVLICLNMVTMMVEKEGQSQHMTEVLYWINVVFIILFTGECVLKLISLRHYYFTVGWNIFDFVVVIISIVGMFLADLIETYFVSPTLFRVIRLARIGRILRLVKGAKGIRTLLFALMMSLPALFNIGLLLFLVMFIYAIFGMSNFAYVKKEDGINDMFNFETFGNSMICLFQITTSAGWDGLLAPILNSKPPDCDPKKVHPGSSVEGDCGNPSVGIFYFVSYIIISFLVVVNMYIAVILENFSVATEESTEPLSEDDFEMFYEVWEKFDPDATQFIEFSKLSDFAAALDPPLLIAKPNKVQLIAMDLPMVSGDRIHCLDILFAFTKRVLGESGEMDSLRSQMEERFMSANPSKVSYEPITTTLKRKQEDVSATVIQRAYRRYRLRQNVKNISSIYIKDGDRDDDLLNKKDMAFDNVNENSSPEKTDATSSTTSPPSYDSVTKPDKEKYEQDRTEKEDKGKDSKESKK

For the compound `C#CC[C@H](N)C(=O)N[C@@H](Cc1ccc(O)cc1)C(=O)N[C@H]1CSSC[C@@H]2NC(=O)[C@@H]3CSSC[C@@H](C(=O)N[C@@H](CCCNC(=N)N)C(=O)N[C@@H](CCCCN)C(=O)N[C@@H](CCC(=O)O)C(=O)N[C@@H](Cc4ccccc4)C(N)=O)NC(=O)[C@H](Cc4c[nH]c5ccccc45)NC(=O)[C@H](CC(C)C)NC(=O)[C@H](CCCCN)NC(=O)[C@H](CSSC[C@H](NC(=O)[C@H]([C@@H](C)O)NC(=O)[C@H](Cc4c[nH]c5ccccc45)NC(=O)[C@H](CCCC)NC(=O)[C@H](Cc4c[nH]c5ccccc45)NC(=O)[C@H](CCCCN)NC(=O)[C@H](CCC(N)=O)NC1=O)C(=O)N[C@@H](CC(=O)O)C(=O)N[C@@H](CO)C(=O)N[C@@H](CCCCN)C(=O)N[C@@H](CCCNC(=N)N)C(=O)N[C@@H](C)C(=O)N3)NC(=O)[C@H](CCCNC(=N)N)NC(=O)[C@H](CC(C)C)NC(=O)CNC(=O)[C@H](CCC(=O)O)NC2=O` [compound 861], the negative-log IC50 (pIC50) at hNav1.7 was 9.41; at hNav1.4, 6.52. Besides, at hNav1.4, the Nav1.4/Nav1.7 is given as 785.
As for `C#CC[C@H](N)C(=O)N[C@@H](Cc1ccc(O)cc1)C(=O)N[C@H]1CSSC[C@@H]2NC(=O)[C@@H]3CSSC[C@@H](C(=O)N[C@@H](CCCNC(=N)N)C(=O)N[C@@H](CCCCN)C(=O)N[C@@H](CCC(=O)O)C(=O)N[C@@H](CC4CCCCC4)C(N)=O)NC(=O)[C@H](Cc4c[nH]c5ccccc45)NC(=O)[C@H](CC(C)C)NC(=O)[C@H](CCCCN)NC(=O)[C@H](CSSC[C@H](NC(=O)[C@H]([C@@H](C)O)NC(=O)[C@H](Cc4c[nH]c5ccccc45)NC(=O)[C@H](CCCC)NC(=O)[C@H](Cc4c[nH]c5ccccc45)NC(=O)[C@H](CCCCN)NC(=O)[C@H](CCC(N)=O)NC1=O)C(=O)N[C@@H](CC(=O)O)C(=O)N[C@@H](CO)C(=O)N[C@@H](CCCCN)C(=O)N[C@@H](CCCNC(=N)N)C(=O)N[C@@H](C)C(=O)N3)NC(=O)[C@H](CCCNC(=N)N)NC(=O)[C@H](CC(C)C)NC(=O)CNC(=O)[C@H](CCC(=O)O)NC2=O` [compound 862], the pIC50 on hNav1.7 was 9.23. At hNav1.4, the negative logarithm of the IC50 (pIC50) is 7.44 and the Nav1.4/Nav1.7 was 62.
For `C#CC[C@H](N)C(=O)N[C@@H](Cc1ccc(O)cc1)C(=O)N[C@H]1CSSC[C@@H]2NC(=O)[C@@H]3CSSC[C@@H](C(=O)N[C@@H](CCCNC(=N)N)C(=O)N[C@@H](CCCCN)C(=O)N[C@@H](CCC(=O)O)C(=O)N[C@H](C(N)=O)[C@@H](C)CC)NC(=O)[C@H](Cc4c[nH]c5ccccc45)NC(=O)[C@H](CC(C)C)NC(=O)[C@H](CCCCN)NC(=O)[C@H](CSSC[C@H](NC(=O)[C@H]([C@@H](C)O)NC(=O)[C@H](Cc4c[nH]c5ccccc45)NC(=O)[C@H](Cc4ccccc4)NC(=O)[C@H](Cc4c[nH]c5ccccc45)NC(=O)[C@H](CCCCN)NC(=O)[C@H](CCC(N)=O)NC1=O)C(=O)N[C@@H](CC(=O)O)C(=O)N[C@@H](CO)C(=O)N[C@@H](CCCCN)C(=O)N[C@@H](CCCNC(=N)N)C(=O)N[C@@H](C)C(=O)N3)NC(=O)[C@H](CCCNC(=N)N)NC(=O)[C@H](CC(C)C)NC(=O)CNC(=O)[C@H](CCC(=O)O)NC2=O` [compound 863], in that order: 8.87, 7.21 and 45.
For `C#CC[C@@H]1NC(=O)[C@@H]2CSSC[C@H](NC(=O)[C@H](CCC(=O)O)NC(=O)[C@@H](N)CC#N)C(=O)N[C@@H](CCC(N)=O)C(=O)N[C@@H](CCCCN)C(=O)N[C@@H](Cc3c[nH]c4ccccc34)C(=O)N[C@@H](CCCC)C(=O)N[C@@H](Cc3c[nH]c4ccccc34)C(=O)N[C@@H]([C@@H](C)O)C(=O)N[C@H]3CSSC[C@H](NC(=O)[C@H](CCCNC(=N)N)NC(=O)[C@H](CC(C)C)NC(=O)CNC1=O)C(=O)N[C@@H](CCCCN)C(=O)N[C@@H](CC(C)C)C(=O)N[C@@H](Cc1c[nH]c4ccccc14)C(=O)N[C@H](C(=O)N[C@@H](CCCNC(=N)N)C(=O)N[C@@H](CCCCN)C(=O)N[C@@H](CCC(=O)O)C(=O)N[C@@H](CC1CCCCC1)C(N)=O)CSSC[C@H](NC(=O)[C@H](C)NC(=O)[C@H](CCCNC(=N)N)NC(=O)[C@H](CCCCN)NC(=O)[C@H](CO)NC(=O)[C@H](CC(=O)O)NC3=O)C(=O)N2` [compound 866], the negative-log IC50 (pIC50) on hNav1.7 was 9.49. Also, at hNav1.4, the pIC50 was 7.42 and the Nav1.4/Nav1.7 came to 117.
Turning to `C#CC[C@@H]1NC(=O)[C@@H]2CSSC[C@H](NC(=O)[C@H](CCC(=O)O)NC(=O)[C@@H](N)CC#N)C(=O)N[C@@H](CCC(N)=O)C(=O)N[C@@H](CCCCN)C(=O)N[C@@H](Cc3c[nH]c4ccccc34)C(=O)N[C@@H](CCCC)C(=O)N[C@@H](Cc3c[nH]c4ccccc34)C(=O)N[C@@H]([C@@H](C)O)C(=O)N[C@H]3CSSC[C@H](NC(=O)[C@H](CCCNC(=N)N)NC(=O)[C@H](CC(C)C)NC(=O)CNC1=O)C(=O)N[C@@H](CCCCN)C(=O)N[C@@H](CC(C)C)C(=O)N[C@@H](Cc1c[nH]c4ccccc14)C(=O)N[C@H](C(=O)N[C@@H](CCCNC(=N)N)C(=O)N[C@@H](CCCCN)C(=O)N[C@@H](CCC(=O)O)C(=O)N[C@@H](CC1CCCCC1)C(N)=O)CSSC[C@H](NC(=O)[C@H](C)NC(=O)[C@H](CCCNC(=N)N)NC(=O)[C@H](CCCCN)NC(=O)[C@H](CCC(=O)O)NC(=O)[C@H](CC(=O)O)NC3=O)C(=O)N2` [compound 869] (H-[Ala(CN)]ECQKW[Nle]WTCDEKRACC[Pra]GLRCKLWCRKE[Cha]-NH2; disulfide 3-17, 10-22, 16-26), the pIC50 at hNav1.7 is 9.02. Moreover, at hNav1.4, the pIC50 is 6.53 and the Nav1.4/Nav1.7 came out at 311.
For `C#CC[C@H](N)C(=O)N[C@@H](Cc1ccc(O)cc1)C(=O)N[C@H]1CSSC[C@@H]2NC(=O)[C@@H]3CSSC[C@@H](C(=O)N[C@@H](CCCNC(=N)N)C(=O)N[C@@H](CCCCN)C(=O)N[C@H](C(=O)N[C@H](C(N)=O)[C@@H](C)CC)[C@@H](C)CC)NC(=O)[C@H](Cc4c[nH]c5ccc(Br)cc45)NC(=O)[C@H](CC(C)C)NC(=O)[C@H](CCCCN)NC(=O)[C@H](CSSC[C@H](NC(=O)[C@H]([C@@H](C)O)NC(=O)[C@H](Cc4c[nH]c5ccccc45)NC(=O)[C@H](CCCC)NC(=O)[C@H](Cc4c[nH]c5ccccc45)NC(=O)[C@H](CCCCN)NC(=O)[C@H](CCC(N)=O)NC1=O)C(=O)N[C@@H](CC(=O)O)C(=O)N[C@@H](CO)C(=O)N[C@@H](CCCCN)C(=O)N[C@@H](CCCNC(=N)N)C(=O)N[C@@H](C)C(=O)N3)NC(=O)[C@H](CCCNC(=N)N)NC(=O)[C@H](CC(C)C)NC(=O)CNC(=O)[C@H](CCC(=O)O)NC2=O` [compound 871], in that order: 8.78, 7.96 and 7.
On the same counts, the results for `C#CC[C@@H]1NC(=O)[C@@H]2CSSC[C@H](NC(=O)[C@H](Cc3ccc(O)cc3)NC(=O)[C@@H](N)CC#N)C(=O)N[C@@H](CCC(N)=O)C(=O)N[C@@H](CCCCN)C(=O)N[C@@H](Cc3c[nH]c4ccccc34)C(=O)N[C@@H](CCCC)C(=O)N[C@@H](Cc3c[nH]c4ccccc34)C(=O)N[C@@H]([C@@H](C)O)C(=O)N[C@H]3CSSC[C@H](NC(=O)[C@H](CCCNC(=N)N)NC(=O)[C@H](CC(C)C)NC(=O)CNC1=O)C(=O)N[C@@H](CCCCN)C(=O)N[C@@H](CC(C)C)C(=O)N[C@@H](Cc1c[nH]c4ccc(Br)cc14)C(=O)N[C@H](C(=O)N[C@@H](CCCNC(=N)N)C(=O)N[C@@H](CCCCN)C(=O)N[C@H](C(=O)N[C@H](C(N)=O)[C@@H](C)CC)[C@@H](C)CC)CSSC[C@H](NC(=O)[C@H](C)NC(=O)[C@H](CCCNC(=N)N)NC(=O)[C@H](CCCCN)NC(=O)[C@H](CO)NC(=O)[C@H](CC(=O)O)NC3=O)C(=O)N2` [compound 872] are 8.96, 8.44 and 3.
For the compound `C#CC[C@@H]1NC(=O)[C@@H]2CSSC[C@H](NC(=O)[C@H](Cc3ccc(O)cc3)NC(=O)[C@@H](N)CC#N)C(=O)N[C@@H](CCC(N)=O)C(=O)N[C@@H](CCCCN)C(=O)N[C@@H](Cc3c[nH]c4ccccc34)C(=O)N[C@@H](CCCC)C(=O)N[C@@H](Cc3c[nH]c4ccccc34)C(=O)N[C@@H]([C@@H](C)O)C(=O)N[C@H]3CSSC[C@H](NC(=O)[C@H](CCCNC(=N)N)NC(=O)[C@H](CC(C)C)NC(=O)CNC1=O)C(=O)N[C@@H](CCCCN)C(=O)N[C@@H](CC(C)C)C(=O)N[C@@H](Cc1c[nH]c4ccccc14)C(=O)N[C@H](C(=O)N[C@@H](CCCNC(=N)N)C(=O)N[C@@H](CCCCN)C(=O)N[C@@H](CCC(=O)O)C(=O)N[C@@H](Cc1ccccc1)C(N)=O)CSSC[C@H](NC(=O)[C@H](C)NC(=O)[C@H](CCCNC(=N)N)NC(=O)[C@H](CCCCN)NC(=O)[C@H](CO)NC(=O)[C@H](CC(=O)O)NC3=O)C(=O)N2` [compound 876], the pIC50 on hNav1.7 is 8.96. In addition, at hNav1.4, the negative-log IC50 (pIC50) was 7.14 and the Nav1.4/Nav1.7 turned out to be 66.
On the same counts, the results for `C#CC[C@@H]1NC(=O)[C@@H]2CSSC[C@H](NC(=O)[C@H](Cc3ccc(O)cc3)NC(=O)[C@@H](N)CC#N)C(=O)N[C@@H](CCC(N)=O)C(=O)N[C@@H](CCCCN)C(=O)N[C@@H](Cc3c[nH]c4ccccc34)C(=O)N[C@@H](CCCC)C(=O)N[C@@H](Cc3c[nH]c4ccccc34)C(=O)N[C@@H]([C@@H](C)O)C(=O)N[C@H]3CSSC[C@H](NC(=O)[C@H](CCCNC(=N)N)NC(=O)[C@H](CC(C)C)NC(=O)CNC1=O)C(=O)N[C@@H](CCCCN)C(=O)N[C@@H](CC(C)C)C(=O)N[C@@H](Cc1c[nH]c4ccccc14)C(=O)N[C@H](C(=O)N[C@@H](CCCNC(=N)N)C(=O)N[C@@H](CCCCN)C(=O)N[C@@H](CCC(=O)O)C(=O)N[C@@H](CCc1ccccc1)C(N)=O)CSSC[C@H](NC(=O)[C@H](C)NC(=O)[C@H](CCCNC(=N)N)NC(=O)[C@H](CCCCN)NC(=O)[C@H](CO)NC(=O)[C@H](CC(=O)O)NC3=O)C(=O)N2` [compound 877] are 9.80, 7.83 and 93.
